Experimental findings from patent US10633383B2, “Compounds for the treatment, alleviation or prevention of disorders associated with Tau aggregates” (AC Immune SA, priority 2018, dated 2020) are described below.

The test system of this experiment is human neuroblastoma cell line overexpressing the full-length form of human Tau carrying the P301L mutation. As to the kind of experiment: Reduction of intracellular Tau aggregation (AlphaLISA). Format: cell-based. The following applies: compound at 5 μM, 24 h, aggregated Tau normalized to total Tau, relative to DMSO-treated cells. As to the method: Reduction of Intracellular Tau Aggregation
A human neuroblastoma cell line overexpressing the full-length form of human Tau carrying the P301L mutation was cultured in complete medium [DMEM-F12 4.5 g/L Glutamax (Invitrogen), 15% FBS (Biochrom), 1% Peni/Strep (Invitrogen) supplemented with 2.5 μg/ml of G418 (Sigma-Aldrich) selection antibiotic]. The day before the experiment 5×10^5 cells/well were plated in a 6 well plate in 3 mL of complete medium. The next day, cells were incubated with DMSO or a compound of the present invention at a 5 μM for additional 24 h at 37° C. After incubation, cells were trypsinized, resuspended in 100 μl of homogenization buffer [25 mM Tris-HCl pH 7.4, 150 mM NaCl, 1 mM EDTA, 1 mM EGTA containing phosphatase inhibitors (30 mM NaF, 0.2 mM Na3VO4, 1 nM Okadaic acid, 1 mM PMSF, 5 mM Na4P2O7) and protease inhibitor cocktail (Complete™, Roche)], and then physically lysed with three rapid cycles of freezing and thawing. Samples were then directly tested in the AlphaLISA assay. Phosphorylated, aggregated, and total Tau were quantified by AlphaLisa using the following antibody pairs: • HT7-Acceptor beads+biotin (BT)-Tau13-Donor beads: Total Tau • HT7-Acceptor beads+biotin (BT)-HT7-Donor beads: Aggregated human Tau
The Tau13 (Abcam) was biotinylated using EZ-Link® NHS-PEO Solid Phase biotinylation kit (Thermo Scientific), while the HT7-biotin was from a commercial source (Thermo Scientific).
For each antibody pairs the concentration of acceptor beads and biotinylated antibodies was optimized. All samples were first tested in a dilution series in PBS in order to identify the linear range and optimal dilution for each sample and assay. For the final protocol, the following reagents were added in a 384-well white OptiPlate (PerkinElmer): • 5 μL of test diluted sample • 20 μL of the mixture biotin-mAb acceptor beads at the following final concentrations: • HT7-BT at 1.25 nM in combination with HT7-Acc beads at 10 μg/ml • Tau13-BT at 5 nM in combination with HT7-Acc beads at 2.5 μg/ml
After incubation of this mixture at room temperature for 1 h, 25 μL of Streptavidin Donor beads (Perkin Elmer) at 25 μg/mL were added in the dark. Plates were analyzed after 30 min incubation using the EnSpire Alpha instrument and EnSpire Workstation version 3.00. Data for aggregated Tau were normalized to total Tau and then expressed as percentage of the DMSO-treated cells.
Background: Alpha assays give light when donor and acceptor beads are brought close together.

As for `Fc1ccc2[nH]c3c(c2c1)CN(c1ccc2nc(N4CCOCC4)oc2c1)CC3` [Example 12], the inhibition (as a rule, how much of the control response was suppressed) at 5 µM was 25 to 50%.
